# What was measured:
# [1] = target: T1, Amine oxidase [flavin-containing] B (Homo sapiens, UniProt P27338); experiment: Inhibition of recombinant human MAO-B using benzylamine as substrate at 1 uM incubated for 20 mins by fluorescence microplate reader analysis relative to control; conditions: read-out: INH
# T1 sequence (P27338 whole entry): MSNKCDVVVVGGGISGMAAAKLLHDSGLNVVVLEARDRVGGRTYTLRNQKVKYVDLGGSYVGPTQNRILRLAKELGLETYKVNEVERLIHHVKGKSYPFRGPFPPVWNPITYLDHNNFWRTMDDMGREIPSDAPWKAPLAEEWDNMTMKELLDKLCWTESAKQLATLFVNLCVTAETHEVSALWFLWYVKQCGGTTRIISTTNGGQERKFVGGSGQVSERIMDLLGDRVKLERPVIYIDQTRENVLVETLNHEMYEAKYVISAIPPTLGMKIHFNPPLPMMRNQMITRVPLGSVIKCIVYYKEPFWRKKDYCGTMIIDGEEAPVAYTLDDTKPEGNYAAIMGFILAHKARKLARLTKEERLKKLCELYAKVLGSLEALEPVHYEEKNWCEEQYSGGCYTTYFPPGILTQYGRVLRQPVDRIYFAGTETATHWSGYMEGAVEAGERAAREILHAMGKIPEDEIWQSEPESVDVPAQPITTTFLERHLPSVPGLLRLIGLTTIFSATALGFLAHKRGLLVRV
# [2] = target: T2, Amine oxidase [flavin-containing] A (Homo sapiens, UniProt P21397)
# T2 sequence (P21397 whole entry): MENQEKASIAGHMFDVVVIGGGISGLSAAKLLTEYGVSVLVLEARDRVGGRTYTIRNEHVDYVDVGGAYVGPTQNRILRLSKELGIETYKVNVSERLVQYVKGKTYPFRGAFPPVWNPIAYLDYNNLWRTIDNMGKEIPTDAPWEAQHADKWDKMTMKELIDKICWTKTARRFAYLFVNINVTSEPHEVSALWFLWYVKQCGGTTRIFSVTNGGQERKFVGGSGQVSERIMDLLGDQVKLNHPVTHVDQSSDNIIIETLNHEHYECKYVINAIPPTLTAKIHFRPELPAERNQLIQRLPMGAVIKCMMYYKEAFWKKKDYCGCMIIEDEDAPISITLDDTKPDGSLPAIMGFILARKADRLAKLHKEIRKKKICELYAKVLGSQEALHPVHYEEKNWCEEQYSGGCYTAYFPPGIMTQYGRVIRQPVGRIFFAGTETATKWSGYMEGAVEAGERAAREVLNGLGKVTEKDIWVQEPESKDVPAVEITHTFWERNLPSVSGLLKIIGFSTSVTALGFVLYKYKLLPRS
# Description: Inhibition of recombinant human MAO-A incubated for 15 mins by Amplex Red reagent and horseradish peroxidase based fluorescence microplate reader analysis
# [3] = target: T2, Amine oxidase [flavin-containing] A; experiment: Inhibition of recombinant human MAO-A at 0.1 uM incubated for 15 mins by Amplex Red reagent and horseradish peroxidase based fluorescence microplate reader analysis relative to control; conditions: 0.25 h
SMILES,inhibition at 1 µM [1] [%],IC50 [2] [µM],inhibition at 0.1 µM [3] [%]
COc1cccc(NC(=O)c2ccc3c(c2)OCCO3)c1,19.7,> 40,–
O=C(NCc1ccccc1)c1ccc2c(c1)OCCO2,< 5,> 40,–
O=C(Nc1ccc2c(c1)OCCO2)c1ccc(Cl)c(Cl)c1,30.8,> 40,–
O=C(Nc1ccccc1Cl)c1ccc2c(c1)OCCO2,< 5,> 40,–
O=C(Nc1ccc2c(c1)OCCO2)c1ccc2c(c1)OCCO2,36.1,> 40,–
O=C(Nc1ccc(Cl)c(Cl)c1)c1ccccc1,40.2,> 40,–
C#CCN(C)CCCOc1ccc(Cl)cc1Cl [CLORGILINE],–,–,79.9

# Now from value to compound, other results behind:
inhibition at 1 µM [1] [%],IC50 [2] [µM],SMILES,inhibition at 0.1 µM [3] [%]
< 5,> 40,O=C(Nc1ccccc1)c1ccc2c(c1)OCO2,–
< 5,> 40,COc1ccc(NC(=O)c2ccc3c(c2)OCCO3)cc1OC,–
< 5,> 40,O=C(Nc1cccc(Cl)c1)c1ccccc1,–
53,> 40,O=C(Nc1cccc(Cl)c1Cl)c1ccc2c(c1)OCCO2,–
27.4,> 40,COc1ccc(NC(=O)c2ccc3c(c2)OCCO3)cc1Cl,–
< 5,> 40,COc1ccc(NC(=O)c2ccc3c(c2)OCCO3)cc1,–
13.8,> 40,O=C(Nc1ccc2[nH]ncc2c1)c1ccc2c(c1)OCCO2,–
19.1,> 40,O=C(Nc1ccccc1F)c1ccc2c(c1)OCCO2,–
–,> 40,O=C(Nc1ccc(Br)cc1)c1ccc2c(c1)OCCO2,–
< 5,> 40,O=C(Nc1ccccc1)c1ccccc1 [N-PHENYLBENZAMIDE],–
